Test results reported in article PMC3256188, “Novel Nonphosphorylated Peptides with Conserved Sequences Selectively Bind to Grb7 SH2 Domain with Affinity Comparable to Its Phosphorylated Ligand” (PLoS ONE, 2012).
Non-standard residues stand in square brackets, D forms with d. No end group written: not given here. pY = N[C@@H](Cc1ccc(OP(=O)(O)O)cc1)C(=O)O

Tests used:
[1] = system: EYFP-tagged Grb7 SH2 domain; test: Bioluminescence Resonance Energy Transfer (BRET) in HEK293T cells; type: cell-based; conditions: 36 h after transfection, EYFP-Grb7 SH2 + mRLUC-tagged peptide, coelenterazine 5.9 µM, eighteen group ratios
From the text: For the BRET assay, the EYFP fragment was generated by PCR amplification. The ErbB3-mRLUC plasmid was constructed by the Beijing Sino Biological Inc. The SH2 domain of Grb7 was fused to the EYFP fragment, and the nonphosphorylated peptides 10 and 41 were fused to the mRLUC fragment. The Grb7 SH2 domain sequence was inserted at the C-terminus of the EYFP tag.
HEK293T cells at 70%–80% confluency were given fresh DMEM (high glucose) culture medium and transfected with plasmids using the calcium phosphate method. Samples were collected at 36 h after transfection.
In BRET, the Renilla luciferase (mRLUC) is fused to the candidate protein, and the green fluorescent protein mutant (EYFP) is fused to the target protein. Interactions between the two fused proteins bring the luciferase and the green fluorescent protein into close proximity, which promotes resonance energy transfer from mRLUC to EYFP [38]. Then EYFP is […] at 530 nm, and the emission is used to determine the binding between the two interacting proteins. In this study, HEK293T cells were collected at 36 h after transfection, 100 µL of mixed cell suspension was added to the u-bottom 96-well microtiter plates (Corning, USA) before measurement. The measurement of bioluminescence, with rasters of 460/40 nm and 518/20 nm, was performed on Synergy4 Multi-Mode Microplates Readers (BioTek, USA). The BRET reaction was initiated by 5.9 µM coelenterazine (Promega, USA). Data were analyzed by one-factor analysis of variance using SPSS 17.0.

Grb7 SH2 domain = test: Yeast two-hybrid, Grb7 SH2 domain; type: cell-based; conditions: yeast strain CG1945, GAL4 BD-SH2 bait, SD/-Trp-His-Leu selection and three independent improved LacZ tests
From the text: To see whether the conserved residues were required for association with the Grb7 SH2 domain, the peptide 10 was used as the mutation template to design three mutated peptides: the N-GIPT deletion mutation (10AM), the C-GIP deletion mutation (10BM) and the both N-GIPT and C-GIP deletion mutation (10CM).
The ABL_1 and Grb2 plasmids were gifts from Professor Ruibao Ren (Brandeis University, USA), and the Grb7 (BC006535) and Grb14 cDNA (BC053559) plasmids were from the Proteintech Group. The inserted sequences of the SH2 domains were as follows: Grb7: N-[…]-C; Grb2: N-[…]-C; ABL_1: N-[…]-C; and Grb14: N-[…]-C.
In the mutation assay, the control and mutation sequences were as follows:
The GAL4 BD-SH2 fusion bait plasmids were transformed into the yeast strain CG1945 using the lithium acetate protocol. The transformants were grown on SD/-Trp plates and spread on SD/-Trp-His plates for self-activation estimation. Those transformants without background growth or growth inhibited by 3-amino-1, 2, 4-triazole were selected for the subsequent screening. Approximately 3.01×10^6 clones of the random peptide library (Protocol No. PT303921, Clontech, USA), as AD baits, were effectively transformed into yeast strain CG 1945 containing BD bait plasmids and used to be screened according to the MATCHMAKER Two-Hybrid System protocol (Cat. No. 630489, Clontech, USA). Plasmids of potential positive transformants selected on plates with SD/-Trp-His-Leu medium in the primary screening were isolated and retransformed into the CG1945 cells containing the corresponding SH2 bait plasmids. The improved LacZ assay was then performed. Clones that were positive for all of the reporter assays and confirmed by three independent improved LacZ tests were selected for specific interactions.

[2] = target: T1, GFP-Grb7 SH2 domain and 41-mRLUC-3×Flag complex (Homo sapiens, UniProt Q14451); test: Competition immunoprecipitation, GFP-Grb7 SH2 domain and 41-mRLUC-3×Flag complex; type: binding
T1 construct: expressed in transfected cells; host or cells: HEK293T
From the text: To see whether the nonphosphorylated peptide could effectively compete with phosphorylated ligand for binding to the Grb7 SH2 domain, the phosphorylated ligand pY (1180) (DEEYEpY(1180)MNRRR), which was previously shown to interact with the Grb7 SH2 domain [6], and the nonphosphorylated 41-A ligand ([…]), which contains the first twenty-two amino acid-motif close to the N-terminus of peptide 41, were examine for their abilities to interfere with the GFP-Grb7 SH2 domain and 41-mRLUC-3×Flag complex using immunoprecipitation with anti-GFP antibody.
The phosphorylated ligand pY (1180) (DEEYEpY(1180)MNRRR) from the ErbB3 and the nonphosphorylated peptide 41-A ([…] RV) from nonphosphorylated peptide 41 were synthesized by the China Peptides Co., Ltd. The HPLC purification analysis and MS quality analysis reports were obtained.
HEK293T cells were washed 5 times with ice-cold PBS buffer and scraped off the plates into cell lysis buffer (1% Nonidet P-40, 0.02 M TRIS (pH 7.5), 0.15 M sodium chloride, 0.001 M EDTA, 0.5% sodium deoxycholate, 0.1% SDS and 0.001 M PMSF). Lysates were incubated on ice for 5 minutes, vortexed 2 times for 30 seconds each and centrifuged at 12,000 rpm for 15 minutes at 4°C. After centrifuging twice, the supernatant was incubated with anti-Flag antibody (1∶100, M20008M, Abmart, China) for 6–8 h at 4°C. Protein G agarose (40 µL) was added into 1 mL of the above mixture and coupled to the anti-Flag antibody for 3 h at 4°C. The immunoprecipitates were washed 2–3 times with PBS buffer (PH 7.4), and the sediments were diluted with 5×SDS electrophoresis buffer and heated at 97°C for 10 minutes. The proteins were separated by SDS-PAGE and transferred to PVDF membranes (IPVH00010, Millipore, USA). The membranes were incubated with anti-GFP antibody (1∶2000, P30010, Abmart, China) and goat anti-rabbit secondary antibody (1∶4000, M21002, Abmart, China) to identify target proteins. For the competition analyses, the immunoprecipitation complexes were mixed with anti-Flag antibody and different concentrations of the synthesized phosphorylated ligands or the nonphosphorylated ligands. The proteins were separated by SDS-PAGE, and the SH2 domain of Grb7 protein was analyzed using anti-GFP antibody. Western blot analysis was carried out using the Image J [37], the IC50 values were calculated by regression analyses using SPSS 17.0.

EGFP-Grb7 SH2 = target: T2, EGFP-Grb7 SH2 (human); test: co-IP; competition: synthetic peptide (0.0072, 0.036, 0.18 mM) added to the immunoprecipitation complexes of Grb7 SH2 domain and 41-mRLUC-3×Flag; Grb7 SH2 blotted with anti-GFP, bands scanned (ImageJ), IC50 by regression; conditions: one partner purified
T2 construct: SH2 domain of Grb7, inserted at the C terminus of the EGFP tag; also called GFP-Grb7 SH2 domain; Grb7 SH2 domain; source: HEK293T, transfected (calcium phosphate), in lysate; not shown: EGFP, N-terminal, kept
T2 chain: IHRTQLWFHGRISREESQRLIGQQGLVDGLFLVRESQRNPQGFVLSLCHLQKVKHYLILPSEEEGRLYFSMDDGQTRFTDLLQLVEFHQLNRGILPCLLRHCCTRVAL

[3] = system: SK-BR-3 breast cancer cells; test: MTS cell proliferation assay; type: cell-based; conditions: beginning from 24 h (measured 18, 24, 36, 48, 60 h after transfection), absorbance 492 nm, vs mRLUC-3×Flag control, p<0.01
Procedure: For the cell proliferation assay, the anti-Grb7 antibody (N-20, Santa Cruz Biotechnology, USA) and the anti-Flag antibody (M20008M, Abmart, China) were used for the western blot, and MTS (Promega, USA) was used for the analysis of cell proliferation.
The MTS cell proliferation assay was performed to analyze the proliferation of SK-BR-3 breast cancer cells (Cell culture center of PUMC, China) according to the manufacturer's instructions (Promega, USA). SK-BR-3 cells at 70%–80% confluency were transiently transfected respectively with plasmids of 41-mRLUC-3×Flag or mRLUC-3×Flag and Mega Tran 1.0 (OriGene, USA). Beginning from 12 h after transfection, 400 µg/mL G418 (11811-023, Invitrogen, USA) was used to select for the transfected cells. The u-bottom 96-well microtiter plates (Corning, USA) were seeded with approximately 7.50×10^3 cells per well at 18 h after transfection. […] The absorbance at 492 nm of transfected cells and control DMEM medium was measured separately at 18 h, 24 h, 36 h, 48 h and 60 h after transfection on Synergy4 Multi-Mode Microplates Readers (BioTek, USA). The absorbance was adjusted by differences in the absorbance between cell culture medium and control medium without seeded cells. The data were analyzed by double-factor variance analysis using SPSS 17.0.

“ErbB3: mRLUC-tagged ErbB3, expressed from ErbB3-mRLUC plasmid” was tested, and the “BRET luminescence ratio of 530/480 nm” value [1] was “strongest luminescence”.

With “N-AGVESL YTPTTPTLLLTRPLPGIPRGLRGW-C [10AM, N-GIPT deletion mutation of peptide 10]” the “recognition by / interaction with the Grb7 SH2 domain” value (“recognition by / interaction” below) (Grb7 SH2 domain) was “None of the three mutations were recognized by the Grb7 SH2 domain”.

In the case of “N-AGVESLGIPNYTPTTPTLLLTRPLP RGLRGW-C (AGVESLGIPNYTPTTPTLLLTRPLPRGLRGW; left off: Gal4 activation domain (inferred: two-hybrid prey), end not stated, kept) [10BM, C-GIP deletion mutation of peptide 10]”, the “recognition by / interaction” value (Grb7 SH2 domain) is reported as “None of the three mutations were recognized by the Grb7 SH2 domain”.

With “N-AGVESLYTPTTPTLLLTRPLPRGLRGW-C [peptide 10CM, both N-GIPT and C-GIP deletion mutation of peptide 10]” the “recognition by / interaction” value (Grb7 SH2 domain) was “None of the three mutations were recognized by the Grb7 SH2 domain” and the “BRET luminescence ratio of 530/480 nm” value [1] was “non-interacting”.

With “N-GMWEGLEGGGVAGVESLGIPNYTPTTPTLLLTRPLPGIPRGLRGWSLLRCCRLLCRNSYITAAPKHHHPLQTSPRGSPGLQEFDIKLIDTVDLEGGPGTQFAL-C [peptide 10, nonphosphorylated peptide identified from random peptide library; mutation template]” the “BRET luminescence ratio of 530/480 nm” value [1] was “significantly stronger” and the “BRET luminescence ratio of 530/480 nm” value ([1]; listed as Peptide 10) was “slightly stronger BRET signals compared to peptide 41”.

For “VAVGIPTQPTTSSEPSPPSNPPWDPGRV [peptide 41-A, synthesized nonphosphorylated ligand containing the first twenty-two amino acid-motif of peptide 41]”, the “interference with binding of the Grb7 SH2 domain to peptide 41” value (from here on “interference with binding”) ([2]; 0.0072 mM) was “did not significantly interfere”, the “interference with binding” value ([2]; 0.036 mM) was “did not significantly interfere” and the “interference with binding” value ([2]; 0.18 mM) was “nearly abolished”. The “disruptive effect on the Grb7 SH2 domain/peptide 41 interaction” value ([2]; Figure 3A, overall, concentration not given) was “even stronger than that of the pY (1180) ligand” and the “binding affinity to the Grb7 SH2 domain, comparison of 41-A and pY (1180)” value ([2]; in vitro competition, in words) was “at least comparable binding affinities to the Grb7 SH2 domain”.

B1: nonphosphorylated 41-A ligand (peptide)
peptide: VAVGIPTQPTTSSEPSPPSNPPWDPGRV
notes: stretch of peptide 41 with its first 22-residue motif; also called peptide 41-A; source: synthetic peptide (China Peptides Co., Ltd.)
For B1, the IC50 (EGFP-Grb7 SH2) was 18.8 µM.

B2: phosphorylated ligand pY (1180) from ErbB3 (peptide)
peptide: DEEYE[pY]MNRRR
notes: ErbB3 stretch around Y1180; source: synthetic peptide (China Peptides Co., Ltd.)
For B2, the IC50 (EGFP-Grb7 SH2) was 31.8 µM.

B3: 41-mRLUC-3×Flag: fusion protein of peptide 41 with mRLUC and 3×Flag, expressed from transfected plasmid (protein)
chain: VGTWTTRGPWCPCVAVGIPTQPTTSSEPSPPSNPPWDPGRVLLGRIVWPGLLALGIPTHHQNDTYNSPHAHPNRDP
modifications: left off: mRLUC, C-terminal, kept | 3×Flag, C-terminal, kept
notes: fusion protein of peptide 41 with mRLUC and 3×Flag, expressed from transfected plasmid
For B3, the “proliferation of transfected SK-BR-3 cells (MTS absorbance)” value [3] was “significantly slower than that of the mRLUC-3×Flag control group”.
